Measured values reported in PMC8246084, “Mapping the binding site topology of amyloid protein aggregates using multivalent ligands” (Chemical Science, 2021).
Read-outs that look alike come from different tables or passages of the source.

Experiments:
α-synuclein fibrils = α-synuclein fibrils (Homo sapiens, UniProt P37840); test: Fluorescence titration with α-synuclein fibrils; format: binding
tau fibrils (htau 0N4R) = biological target: T1, tau fibrils (htau 0N4R) (Homo sapiens, UniProt P10636); test: Fluorescence titration with tau fibrils; conditions: monodisperse BTA dimers; 0.5 μM tau; PBS 1× pH 7.4, 298 K; errors at 95% confidence limit; read-out: Dissociation constant (Kd) for binding to tau fibrils
T1 construct: purchased InVivo BioTech Services GmbH, Germany
T1 sequence (P10636 1-383 isoform P10636-6): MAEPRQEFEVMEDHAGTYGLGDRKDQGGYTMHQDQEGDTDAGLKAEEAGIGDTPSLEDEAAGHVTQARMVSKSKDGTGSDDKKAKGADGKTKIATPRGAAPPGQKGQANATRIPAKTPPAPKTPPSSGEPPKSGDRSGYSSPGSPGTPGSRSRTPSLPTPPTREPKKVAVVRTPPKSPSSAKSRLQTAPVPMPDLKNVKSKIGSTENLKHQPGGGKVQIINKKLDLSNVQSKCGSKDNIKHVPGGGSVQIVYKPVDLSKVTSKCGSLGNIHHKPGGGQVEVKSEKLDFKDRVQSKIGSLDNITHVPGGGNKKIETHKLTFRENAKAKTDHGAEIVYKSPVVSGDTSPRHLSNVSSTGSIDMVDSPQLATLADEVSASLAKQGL

Aβ42 fibrils = biological target: T2, Aβ42 fibrils (Homo sapiens, UniProt P05067); test: Fluorescence titration with Aβ42 fibrils; conditions: monodisperse BTA dimers; 0.5 μM Aβ42; PBS 1× pH 7.4, 298 K; errors at 95% confidence limit; read-out: Dissociation constant (Kd) for binding to Aβ42 fibrils
T2 construct: monomeric amyloid-b1-42; purchased Stratech A-1167-2-RPE
T2 sequence (P05067 672-713 limits assumed): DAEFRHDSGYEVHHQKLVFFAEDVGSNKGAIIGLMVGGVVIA

[1] = biological target: T3, α-synuclein aggregates (LB509/pS129-positive Lewy bodies) (Homo sapiens, UniProt P37840); test: Staining of brain sections from patients with Parkinson's disease; conditions: compound 100 nM
T3 construct: tissue Cambridge Brain Bank; host or cells: post-mortem human brain sections, Parkinson's disease, substantia nigra
Text: (§1) Brain sections from patients with Parkinson's disease were labelled with antibodies against α-synuclein (LB509 and pS129) and stained with compounds 13, 14 and 15 (Fig. 8a). LB509/pS129-positive Lewy bodies, that were identified as cytoplasmic spheres, were stained by both compounds 14 and 15 but not by compound 13. […] To assess any potential cross-reactivity with other pathological amyloid aggregates, such as Aβ plaques and neurofibrillary tangles of tau, brain sections from patients with Alzheimer's disease were labelled with antibody against tau (dako tau) and Aβ (4G8) and stained with compounds 13, 14 and 15 (Fig. 8b).
(§2) Fig. 8 Fluorescence microscope images of human brain sections. (a) Sections from patients with Parkinson's disease labelled with antibodies against α-synuclein (LB509 and pS129) and stained with compounds 13, 14 and 15 (100 nM). (b) Sections from patients with Alzheimer's disease labelled with antibodies against tau (dako tau) and Aβ (4G8) and stained with compounds 13, 14 and 15 (1 μM). Scale bar 20 μm.
(§3) Frozen brain tissues from neuropathologically confirmed cases of PD and AD were obtained from the Cambridge Brain Bank (Table S3). Tissue blocks were post-fixed in 4% paraformaldehyde and cryoprotected before snap freezing in OCT. Brain sections (15 μm) were generated using a cryostat (Bright OTF5000) for immunohistochemistry and compound staining.
(§4) Table S3. Details of human tissue used (SN substantia nigra, FL frontal lobe) Case no Diagnosis Braak Stage Brain region Age
9. Immunohistochemistry and Staining
Fixed brain sections were washed with 70% EtOH and allowed to air dry for 20 min before incubation overnight at 4°C with either a mixture of monoclonal antibodies for α-syn (1:500, ab27766, Abcam) and pS129 α-syn (1:500, ab51253, Abcam) for PD sections or a mixture of monoclonal antibody for Aβ (1:500, 800701, Biolegend) and polyclonal antibody for human tau (1:500, A002401-2, Agilent) for AD sections. Sections were washed with PBS 3 x 15 min and incubated for 3 h at room temperature in secondary antibody, either a mixture of goat anti- […]
A11011, ThermoFisher) for PD sections or a mixture of goat anti-mouse ALEXA-647 (1:1000, A21235, ThermoFisher) and goat anti-rabbit ALEXA-546 (1:1000, A11035, ThermoFisher) for AD sections. Compounds 13, 14 and 15 were also diluted in the secondary antibody preparation at stated concentrations. Sections were washed with PBS 3 x 10 min and once with 70% EtOH 5 min before blocking autofluorescence with Autofluorescence Inhibitor (2160, Millipore) for 5 min. After 3 x 1 min washes in 70% EtOH sections were mounted using Fluorosave mounting medium (345789, Millipore). Fluorescence images were taken using a Leica DMI4000B.

[2] = system: 4G8-positive extracellular plaques (Aβ); test: Staining of brain sections from patients with Alzheimer's disease (Aβ); design: species or system human; conditions: compound 1 μM
Text: as §1, §2, §3, §4
(§5) 9. Immunohistochemistry and Staining […]
(§6) A11011, ThermoFisher) for PD sections or a mixture of goat anti-mouse ALEXA-647 (1:1000, A21235, ThermoFisher) and goat anti-rabbit ALEXA-546 (1:1000, A11035, ThermoFisher) for AD sections. […] Fluorescence images were taken using a Leica DMI4000B.

[3] = biological target: Tau-positive neuronal inclusions (Homo sapiens, UniProt P10636); test: Staining of brain sections from patients with Alzheimer's disease (tau); conditions: compound 1 μM
Chain of Tau-positive neuronal inclusions (P10636 623-708 limits assumed): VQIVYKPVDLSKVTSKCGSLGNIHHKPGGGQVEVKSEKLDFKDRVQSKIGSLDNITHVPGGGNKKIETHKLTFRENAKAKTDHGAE
Text: as §1, §2, §3, §4, §5, §6

[4] = Solubility for fluorescence titrations in PBS; format: physicochemical; conditions: PBS 1× titration conditions
Text: Eqn (1)–(3) can be fit to the two sets of titration data in Fig. 3 to determine the dissociation constant Kd and brightness (ef) of the free and bound BTA dimer, and in the case of high affinity binding, the concentration of binding sites on the protein fibrils. In all cases, the titration data fit well to a 1 : 1 binding isotherm, and the lines shown in Fig. 3 are the calculated lines of best fit.
Fluorescent titrations with the polydisperse mixtures of BTA dimers were used to measure the apparent binding affinities for α-synuclein fibrils in the same way as described above for the monodisperse BTA dimers. The titration data fit well to a 1 : 1 binding isotherm allowing for the fluorescence emission from the free dye as described above, and the results are summarised in Table 2. […] The dissociation constants for the other polydisperse BTA dimers are in the same range as those measured for the monodisperse analogues. […]
5. Fluorescence titrations […]
The fluorescence spectra were analysed using a Microsoft Excel spreadsheet to fit the changes in fluorescence intensity at fixed wavelengths to a 1:1 binding isotherm by optimizing the association constant, the optical brightness of the free and bound guest, and the concentration of protein binding sites using purpose written VBA macros. […]
Figure S25. Fluorescence titration of compound 14. […]
Figure S26. Fluorescence titration of compound 15. […]

[5] = biological target: α-synuclein sonicated fibrils (Homo sapiens, UniProt P37840); test: TIRFM imaging of α-synuclein aggregates in vitro; conditions: nanomolar 15 (4 nM, 200 nM) vs 5 μM ThT; fibrils from 200 nM monomer
Text: The highest affinity BTA dimers were investigated as fluorescence imaging agents for protein aggregates. Fig. 7 compares in vitro imaging of α-synuclein aggregates with 15 and with thioflavin T (ThT). ThT is widely used to image aggregates, because it has a very low fluorescence emission intensity in the free state, and there is a large increase in fluorescence emission on binding to protein aggregates. The corresponding change in fluorescence emission intensity is much lower for the BTA dimers described here (see Fig. 3).
Fig. 7 TIRFM images of α-synuclein sonicated fibrils in the presence of (a) 4 nM 15, (b) 200 nM 15 and (c) 5 μM ThT. Fibrils were obtained from 200 nM samples of the monomer. All images have the same contrast. Scale bar 10 μm.
7. Total internal reflection fluorescence microscopy (TIRFM) imaging
Imaging was performed using a homebuilt total internal reflection fluorescence microscope as reported previously.7 Briefly, this imaging mode restricts detectable axial fluorescence signal to within ~200 nm from the glass-water interface. […] Fluorescence was collected by the same objective and was separated from the returning TIR beam by a dichroic (Di01-R405/488/561/635, Semrock), and passed through […]
respectively). The images were recorded on an EMCCD camera (Evolve 512, Photometrics) operating in frame transfer mode (EMGain of 11.5 e−/ADU and 250 ADU/photon). […]

[6] = monodisperse BTA dimers, 1 μM α-synuclein, PBS 1× pH 7.4, 298 K, errors at 95% confidence limit, read-out: Dissociation constant (Kd) for binding to α-synuclein fibrils

Kd (α-synuclein fibrils; monomeric BTA analogue, fluorescence titration, read-out: Kd for α-synuclein (binding affinity too low to measure))	Kd (α-synuclein fibrils; [6])	Kd (tau fibrils (htau 0N4R))	Kd (Aβ42 fibrils)	Co-localisation with α-synuclein antibodies elsewhere in the brain section [1]	Staining of LB509/pS129-positive Lewy bodies [1]	Staining of tau-positive neuronal inclusions [3]	Solubility (sufficient to determine accurate dissociation constants) [4]	Image brightness compared with ThT [5]	Structure (SMILES)	Staining of 4G8-positive extracellular plaques [2]
> 1000 nM									COCCOCCOCCOc1ccc2nc(-c3ccc(N(C)C)cc3)sc2c1 [monomeric BTA analogue]	
	210 ± 180 nM	280 ± 48 nM	320 ± 75 nM						CN(C)c1ccc(-c2nc3ccc(OCCOCCOCCOCCOCCOCCOCCOCCOCCOCCOCCOCCOCCOCCOCCOCCOCCOCCOCCOCCOCCOc4ccc5nc(-c6ccc(N(C)C)cc6)sc5c4)cc3s2)cc1 [Compound 17]	
	35 ± 15 nM	110 ± 57 nM	7 ± 5 nM						CN(C)c1ccc(-c2nc3ccc(OCCOCCOCCOCCOCCOCCOCCOCCOCCOCCOCCOCCOCCOCCOCCOc4ccc5nc(-c6ccc(N(C)C)cc6)sc5c4)cc3s2)cc1 [Compound 16]	

The remaining lines, values behind:

Structure (SMILES)	Kd (α-synuclein fibrils; monomeric BTA analogue, fluorescence titration, read-out: Kd for α-synuclein (binding affinity too low to measure))	Kd (α-synuclein fibrils; [6])	Kd (tau fibrils (htau 0N4R))	Kd (Aβ42 fibrils)	Co-localisation with α-synuclein antibodies elsewhere in the brain section [1]	Staining of LB509/pS129-positive Lewy bodies [1]	Staining of tau-positive neuronal inclusions [3]	Solubility (sufficient to determine accurate dissociation constants) [4]	Image brightness compared with ThT [5]	Staining of 4G8-positive extracellular plaques [2]
CN(C)c1ccc(-c2nc3ccc(OCCOCCOCCOCCOCCOCCOc4ccc5nc(-c6ccc(N(C)C)cc6)sc5c4)cc3s2)cc1 [Compound 14]		190 ± 140 nM	900 ± 700 nM	1400 ± 1600 nM	significant amounts of co-localisation	stained	no staining			no staining
CN(C)c1ccc(-c2nc3ccc(OCCOCCOCCOc4ccc5nc(-c6ccc(N(C)C)cc6)sc5c4)cc3s2)cc1 [Compound 13]						not	no staining	not sufficiently soluble		no staining
CN(C)c1ccc(-c2nc3ccc(OCCOCCOCCOCCOCCOCCOCCOCCOCCOc4ccc5nc(-c6ccc(N(C)C)cc6)sc5c4)cc3s2)cc1 [Compound 15]		2.7 ± 1.5 nM	1000 ± 300 nM	78 ± 26 nM		stained	no staining		brighter	no staining
